Results published in patent publication US8614179B2, “Antibacterial combination therapy for the treatment of gram positive bacterial infections” (E-Therapeutics PLC, priority 2008, dated 2013).
Like-named read-outs stand apart in the source and are kept apart here.

Tests used:
[1] = tested on: Enterococcus faecium (VRE); assay: microbe, parasite or virus in culture; format: cell-based
Procedure: (§1) In example experiments miconazole nitrate, econazole nitrate and clotrimazole were dissolved in DMSO. Colistin, D-cycloserine, fosfomycin and polymixin B were dissolved in water. Nisin was suspended at 10 mg/mL in 0.02 M HCl, and the supernatant fraction following centrifugation at 10,000 g for 10 mins was used in the following experiments.
(§2) Other solvents that may be used include caster oil, pyridine, and 0.9% saline. For IV administration agents may be solubilised in polyethoxylated caster oil, or cyclodextrins such as sulfobutylether7-βcyclodextrin or hydroxypropyl-β-cyclodextrin and lactic acid. Minimum inhibitory concentrations (MICs) of a range of clinical and control bacterial organisms were measured according to BSAC (British Society for Antimicrobial Chemotherapy) guidelines (Andrews 2001), for single agents. The method of determining MICs of imidazole with colistin, D-cycloserine, fosfomycin, polymixin B, or nisin is described briefly as follows. MICs were measured by agar dilution. Kill curves were performed in accordance with the methods of Garrison and Nuemiller, 2007. Briefly kill profiles were generated by logarithmically plotting mean CFU/mL data over time. Total logarithmic reductions in bacterial counts were determined by subtracting 24 h CFU/mL values from starting inocula.
(§3) Stock solutions were prepared at concentrations of 1000 mg/L and 100 mg/L. To determine the MIC of miconazole, the appropriate amount of each stock solution were added to separate Petri dishes give a range of final concentrations (after the addition of 20 mL molten agar): from 0.12 to 32 mg/L. To determine the MICs of miconazole with the specific agent active on a bacterial cell surface, these concentrations of miconazole were used in addition to a fixed sub-inhibitory amount of the agent active on a bacterial cell surface. […] Volumes (20 mL) of cooled molten IST agar (oxoid) was added to each Petri dish and mixed by swirling. After drying, the plates were stored at 4° C. and protected from light. Plates were used on the day of preparation.
(§4) The test organisms were grown overnight in 5 mL IST broth. Using a dilution in 0.9% saline of 1:100, the appropriate agar plates were inoculated using a multipoint inoculator.
(§5) Agar plates and microtitre plates were incubated at 37° C. in air for 18-20 hours.
(§6) The MIC is the minimum amount of an antibiotic at which there is no visible growth of bacteria. Tiny single colonies or faint hazes were not counted as growth. Synergy was reported if the inhibitory effect of the drugs in combination were greater than the sum of the inhibitory effects of each drug singly. The concentration of miconazole, with or without the cell membrane or cell wall active agent, capable of inhibiting the growth of 50% and 90% of the strains tested is reported as the MIC50 and MIC90 respectively. The range of MICs for each group of bacterial strains is also reported.

[2] = tested on: VISA; assay: microbe, parasite or virus in culture; format: cell-based; conditions: Staphylococcus aureus
Procedure: as §1, §2, §3, §4, §5, §6

[3] = tested on: Staphylococcus epidermidis; assay: MIC by agar dilution, Staphylococcus epidermidis; format: cell-based
Procedure: as §2, §3
(§7) The test organisms were grown overnight in 5 mL IST broth. Using a dilution in 0.9% saline of 1:100, the appropriate agar plates were inoculated using a multipoint inoculator. […]
(§8) The MIC is the minimum amount of an antibiotic at which there is no visible growth of bacteria. Tiny single colonies or faint hazes were not counted as growth. […]

[4] = tested on: Enterococcus faecalis (VRE); assay: MIC by agar dilution, Enterococcus faecalis (VRE); format: cell-based
Procedure: as §2, §3, §7, §8

[5] = tested on: Escherichia coli; assay: MIC by agar dilution, Escherichia coli; format: cell-based
Procedure: as §2, §3, §7, §8

[6] = tested on: Pseudomonas aeruginosa; assay: MIC by agar dilution, Pseudomonas aeruginosa; format: cell-based
Procedure: as §2, §3, §7, §8

[7] = in vivo, cited from earlier work
[8] = tested on: MRSA AND VRE; assay: MIC by agar dilution, MIC50/MIC90/range over MRSA and VRE strain panel; format: cell-based, Staphylococcus aureus; Enterococci
Procedure: In example experiments miconazole nitrate, econazole nitrate and clotrimazole were dissolved in DMSO. Colistin, D-cycloserine, fosfomycin and polymixin B were dissolved in water.
as §2, with “The method of determining MICs of imidazole with colistin, D-cycloserine, fosfomycin, polymixin B, or nisin is described briefly as follows.” left out
as §3, §7
as §6, with “Synergy was reported if the inhibitory effect of the drugs in combination were greater than the sum of the inhibitory effects of each drug singly.” left out

[9] = ATCC 4147 / VRE, Table 2, strain E15 VanA ATCC 4147, read-out: MIC
[10] = NCTC 7171 / VRE, Table 2, strain NCTC 7171, read-out: MIC
[11] = VRE, Table 2, strain E19 UAA/522 VanB, read-out: MIC
[12] = VRE, Table 2, strain VanR B145344C LFE, read-out: MIC
[13] = Table 2, strain USA/VISA 5827, read-out: MIC
[14] = Table 2, strain USA/VISA 5836, read-out: MIC
[15] = Table 2, strain VISA 3900 UK, read-out: MIC

c1ccc(-c2ccc(C(c3ccccc3)n3ccnc3)cc2)cc1 (stereo not drawn) [Bifonazole]
MIC [1, 9]: > 128 µg/mL | MIC [1, 10]: > 128 µg/mL | MIC [1, 11]: > 128 µg/mL | MIC [1, 12]: > 128 µg/mL | MIC [2, 13]: > 128 µg/mL | MIC [2, 14]: > 128 µg/mL | MIC [2, 15]: > 128 µg/mL | MIC ([3]; ATCC1228, Table 2, strain ATCC 1228, read-out: MIC): > 128 µg/mL | MIC ([4]; Table 2, strain E8 VanA, read-out: MIC): > 128 µg/mL | MIC ([5]; NCTC10418, Table 2, strain NCTC 10418, read-out: MIC): > 128 µg/mL | MIC ([6]; NCTC10662, Table 2, strain NCTC 10662, read-out: MIC): > 128 µg/mL

Clc1ccccc1C(c1ccccc1)(c1ccccc1)n1ccnc1 [Clotrimazole, 1-[(2-Chlorophenyl)diphenylmethyl]-1H-imidazole]
half-life ([7]; human, po): around 3 hours | absorption following oral administration [7]: well absorbed

N[C@@H]1CONC1=O [D-cycloserine]
inhibitory effect on the growth of the bacterial strains tested ([8]; D-cycloserine alone at 10 mg/L): no inhibitory effect

OC(Cn1cncn1)(Cn1cncn1)c1ccc(F)cc1F [Fluconazole]
MIC ([1]; ATCC 4147 / VRE, Table 2, strain E15 VanA ATCC 4147): > 128 µg/mL | MIC ([1]; NCTC 7171 / VRE, Table 2, strain NCTC 7171): > 128 µg/mL | MIC ([1]; VRE, Table 2, strain E19 UAA/522 VanB): > 128 µg/mL | MIC ([1]; VRE, Table 2, strain VanR B145344C LFE): > 128 µg/mL | MIC ([2]; Table 2, strain USA/VISA 5827): > 128 µg/mL | MIC ([2]; Table 2, strain USA/VISA 5836): > 128 µg/mL | MIC ([2]; Table 2, strain VISA 3900 UK): > 128 µg/mL | MIC ([3]; ATCC1228): > 128 µg/mL | MIC [4]: > 128 µg/mL | MIC ([5]; NCTC10418): > 128 µg/mL | MIC ([6]; NCTC10662): > 128 µg/mL

CC(=O)N1CCN(c2ccc(OCC3COC(Cn4ccnc4)(c4ccc(Cl)cc4Cl)O3)cc2)CC1 (stereo not drawn) [Ketoconazole]
MIC [1, 9]: 16 µg/mL | MIC [1, 10]: 128 µg/mL | MIC [1, 11]: 128 µg/mL | MIC [1, 12]: 128 µg/mL | MIC [2, 13]: 64 µg/mL | MIC [2, 14]: 64 µg/mL | MIC [2, 15]: 64 µg/mL | MIC ([3]; ATCC1228): 64 µg/mL | MIC [4]: > 256 µg/mL | MIC ([5]; NCTC10418): > 256 µg/mL | MIC ([6]; NCTC10662): > 256 µg/mL

C[C@@H]1O[C@@H]1P(=O)(O)O [fosfomycin]
inhibitory effect on the growth of the bacterial strains tested ([8]; fosfomycin alone at 5 mg/L): no inhibitory effect

colistin
inhibitory effect on the growth of the bacterial strains tested ([8]; colistin alone at 5 mg/L): no inhibitory effect

polymixin B
inhibitory effect on the growth of the bacterial strains tested ([8]; polymixin B alone at 20 mg/L): no inhibitory effect
